# Results as given in patent US20250154468A1, “METHOD FOR INDUCING DEDIFFERENTIATION OF ADIPOCYTES” (City University of Hong Kong, priority 2023, published 2025).
# Assays:
# Format in all cases: cell-based, mouse
# 3T3-L1 adipocytes [1] = assay: Loss of lipid droplets and morphological changes of 3T3-L1 adipocytes; design: loss of lipid droplets: dose or concentration left out as unconfirmed
# Procedure: 3T3-L1 (ATCC CL-173) cells were cultured in DMEM medium (Thermo Fisher, product no. 11965126) containing 10% FBS, 2 mM L-glutamine and […] of penicillin-streptomycin (Thermo Fisher).
# 1.25×10^5 3T3-L1 were seeded in 6-well dishes and cultured at 37° C. and 5% CO2. The 10 μg/ml insulin (MedChemExpress, product no. HY-P0035), 1 μM dexamethasone (MedChemExpress, product no. HY-14648), 0.5 mM 3-isobutyl-1-methylxanthine (IBMX) (MedChemExpress, product no. HY-12318) and 2 μM rosiglitazone (Sigma, product no. R2408-10MG) (Differentiation medium) were supplemented in culture medium to constitute the differentiation medium for 2 days. Differentiation to SVF was induced by differentiation medium. The SVF cells were incubated for 5 days with differentiation medium. The medium was then changed to DMEM containing 10% FBS, 1×P/S, and 10 μg/ml insulin for 48 h, followed by changing to the culture medium.
# […] […] HY-Y0873), and maintained at 37° C. and 5% CO2. The medium was changed every 3 days, being careful to avoid shaking the dish to allow the hypertonic medium to diffuse slowly in the culture dish.
# SVF adipocytes = assay: Loss of lipid droplets and morphological changes of SVF-derived adipocytes; design: loss of lipid droplets: dose or concentration left out as unconfirmed
# Procedure: C57BL/6J mice were used for the present invention and maintained in a 12:12 h light-dark cycle. All mouse experiments were performed in accordance with the protocol approved by the Institutional Animal Research Ethics Sub-Committee of City University of Hong Kong and Department of Health, The Government of The Hong Kong Special Administrative Region. 6 to 8-week-old female were anesthetized with 4% of isoflurane by inhalation, and then inguinal, retroperitoneal WAT were removed. The tissues were shredded after washing in sterile PBS. Afterwards, the tissue pieces were incubated in type II collagenase (Sigma, product no. C6885) for 1 h at 37° C. before passed through a sterile 100 μm filter. SVF was obtained after 5 min centrifugation at 1000 rpm. Culture medium (DMEM supplemented with 10% FBS and 1% penicillin-streptomycin (all obtained from Thermo Fisher) was added to resuspend the cells, followed by culturing in 100 mm culture dishes. The following day, the culture medium was changed to remove the dead and non-adherent cells.
# 1.25×10^5 3T3-L1 were seeded in 6-well dishes and cultured at 37° C. and 5% CO2. […]
# adipocytes = assay: Oil Red O staining of adipocytes; details: BML-284 treatment
# Procedure: Adipocytes were stained with Oil red O staining kit (Solarbio, product no. G1262) solution to detect the lipid droplets according to manufacturer's instructions. Specifically, cells were fixed with 10% formalin for 20 min at room temperature, followed by washing with 60% isopropanol for 5 min. Subsequently, staining was conducted with ORO solution for 20 min at room temperature to enable binding of the dye to the lipid droplets. Finally, the cells were washed with distilled water to eliminate any residual dye.
# [2] = test system: C/EBPβ, PPAR-γ, and adiponectin; assay: RT-qPCR of adipogenic markers in 3T3-L1 adipocytes; details: BML-284 treated cells
# Procedure: (§1) Total RNA was isolated using the RNA Extraction Kit (Takara, product no. 9767) in accordance with the manufacturer's recommended protocol. The first-strand cDNA was synthesized using the PrimeScript RT Reagent Kit (Takara, product no. RR047A) for RT-PCR. In brief, a 10 μl system containing 2 μl of 5× PrimeScript RT Master Mix (Perfect Real Time) and RNase-Free Distilled Water and RNA solution, with a total RNA amount of 500 ng, was transferred to the ABI ProFlex PCR System (2×96-well) to perform reverse transcription. RT-PCR was then conducted using the Ex-Taq PCR kit (Takara, product no. RR820A) following the manufacturer's instructions. All RT-qPCR primer sequences were included in Table 2.
# Smad 9, Esrrb, and Sox2 = assay: RT-qPCR of multipotency / stem cell marker genes in adipocytes; details: BML-284 treated cells
# Procedure: as §1
# CD13 and Endoglin = assay: Immunostaining of surface markers of dedifferentiated adipocytes; details: BML-284 treated cells
# Procedure: Twelve hours before the experiment, cells were seeded onto cover slips in 12-well dishes and cultured overnight at 37° C. and […]. Cells were fixed with […] for 10 min at 4° C. Next, the cells were either directly incubated with 1% BSA/PBS for 1 h or first permeabilized with 0.1% Triton X-100/PBS for 10 min at 4° C. before blocking with 1% BSA/PBS. Subsequently, CD13 primary antibody (Santa Cruz, product no. sc-13536 1:100) or Endoglin primary antibody (Santa Cruz, product no. sc-18838 1:100) was incubated with cells overnight at 4° C. Following 3 times washing in 0.5% tween/PBS, cells were incubated with secondary antibody (CST, product no. 8890S) in 1% BSA/PBS (1:400) in darkness for 1.5 hours at room temperature. After further washing, cells were mounted with DAPI (Thermo Fisher, product no. 62247) and examined with a Nikon A1HD25 confocal microscope.
# 3T3-L1 adipocytes [3] = assay: Osteogenic re-differentiation of treated 3T3-L1 adipocytes; details: BML-284-treated adipocytes
# Procedure: The osteogenic and chondrogenic re-differentiation capacities of dedifferentiated adipocytes were also examined. To induce osteogenic differentiation, 1×10^6 cells were seeded in 6-well plates and incubated overnight at 37° C. and 5% CO2. The culture medium was then replaced with StemPro Osteogenesis Differentiation medium (Thermo Fisher, product no. A1007201) and cells were maintained in this medium for up to 14 days, with medium renewal every 3 days. This medium contains specific factors that promote differentiation towards the osteogenic lineage, allowing the cells to deposit mineralized extracellular matrix and express osteogenic markers.
# Alkaline phosphatase (ALP) staining was conducted on Day 9 of the feeder cell-mediated reprogramming process, following the manufacturer's instructions for the Alkaline Phosphatase Detection Kit (Sigma, product no. SCR004). The staining was performed to detect the activity of ALP, a marker of pluripotency, and to assess the success of the reprogramming process.
# Total RNA was isolated using the RNA Extraction Kit (Takara, product no. 9767) in accordance with the manufacturer's recommended protocol. The first-strand cDNA was synthesized using the PrimeScript RT Reagent Kit (Takara, product no. RR047A) for RT-PCR. […]
# 3T3-L1 adipocytes [4] = assay: Chondrogenic re-differentiation of treated 3T3-L1 adipocytes; details: BML-284-treated adipocytes
# 3T3-L1 adipocytes [5] = assay: AnnexinV-FITC/PI staining, apoptosis of adipocytes; details: comparison of BML-284 and hypertonic treatment
# Procedure: The hypertonic dedifferentiation of adipocytes typically requires up to 7 days of culture in 2% PEG-300. Considering that TNF-α is recognized as a proinflammatory cytokine capable of inducing adipocyte apoptosis, an evaluation of the apoptotic status of adipocytes was carried out using AnnexinV-FITC/PI staining. […] It was concluded that the extended hypertonic treatment could lead to apoptosis alongside the dedifferentiation of adipocytes.
# [6] = test system: VDAC and NDUFA9 in the EVs of 3T3-L1 adipocytes; assay: Immunoblot of mitochondrial proteins in EVs of 3T3-L1 adipocytes
# Procedure: To obtain lysates, cells were washed twice with cold PBS and lysed with 1 mL of RIPA buffer (Beyotime, product no. P0013B) at 4° C. for 1 hour with gentle rotation. The lysate was subsequently centrifuged at 12,000 g for 20 min at 4° C., and the resulting supernatant was quantified the protein concentration. Protein extracts were then separated by SDS-PAGE and transferred onto a NC membrane (Bio-Rad, product no. 1620112). The membranes were incubated overnight at 4° C. with antibodies against VDAC (CST, product no. 4866s, 1:1000), NDUFA9 (Abcam, product no. ab14713, 1:1000), CD81(Santa Cruz, product no. sc-166029, 1:1000), Non-phospho (Active) β-Catenin (CST, product no. 8814, 1:2000), β-Catenin (CST, product no. 9562, 1:1000) and 3-actin (Santa Cruz, product no. sc-47778, 1:1000). Following incubation with the appropriate secondary antibody (Abcam, product no. ab205719; Thermo Fisher, product no. 31460, 1:4000), the protein bands were visualized using an enhanced chemiluminescence (ECL) kit (Bio-Rad, product no. 170-5061) and captured using a Bio-red ChemiDoc. […]
# The 3T3-L1 adipocytes were treated by isotonic and hypertonic medium. […] The resuspended suspensions contain approximately 80 μg protein each as determined by DC protein assay (Bio-Rad, product no. 5000114). […]
# [7] = test system: mitochondria in adipocytes; assay: MitoTracker Green (MTG) staining of mitochondria; details: pyruvic acid (1 mM) added to the hypertonic treatment
# Procedure: Hypertonicity is known to disrupt the ionic homeostasis of cells and reduce the electronic potential in mitochondria, consequentially inhibiting ATP production.
# To stain cells with MitoTracker (CST, product no. FM 9074), the 1 mM stock solution should be diluted directly into normal growth media to achieve a staining concentration ranging from 400 nM. The live cells were incubated for 15 minutes at 37° C. Following incubation, live imaging is necessary to visualize the staining pattern within the cells.
# To mitigate mitochondrial stress, adipocytes were treated with 1 mM pyruvic acid (Sigma-Aldrich, product no. 107360) in hypertonic cultures. An equivalent volume of DMSO was added to the control samples. Following the treatment, the cells were either subjected to MTG staining or the supernatants were collected for EV isolation and analysis.
# [8] = test system: TNF-α, IL-6, RIP1, CEBPA, and MCP-1; assay: RT-qPCR of inflammatory genes in 3T3-L1 adipocytes
# Procedure: To validate this, MEVs were isolated from the hypertonic treatment of 3T3-L1 adipocytes and subsequently applied to naïve 3T3-L1 adipocytes cultured in isotonic conditions (FIG. 6A).
# as §1
smiles,measurement,setting,value
"COc1cccc(-c2cc(NCc3ccc4c(c3)OCO4)nc(N)n2)c1 [BML-284, 2-amino-4-(3,4-(methylenedioxy)benzylamino)-6-(3-methoxyphenyl)pyrimidine]",loss of lipid droplets,"3T3-L1 adipocytes [1]; 3T3-L1 adipocytes, isotonic culture, 4 days",40%
same,cells with elongated morphology,3T3-L1 adipocytes [1]; BML-284-treated 3T3-L1 adipocytes,significant increases
same,cells with elongated morphology,SVF adipocytes; BML-284-treated SVF adipocytes,significant increases
same,loss of lipid droplets,"SVF adipocytes; SVF adipocytes, isotonic culture, 4 days",80%
same,Oil red staining,adipocytes,decreased
same,"expression of adipogenic genes (C/EBPβ, PPAR-γ, adiponectin)",[2],significant reductions
same,"expression of marker genes of multipotency (Smad 9, Esrrb, Sox2)","Smad 9, Esrrb, and Sox2",significant increases
same,expression of proteins of multipotency (CD13 and endoglin),CD13 and Endoglin,significant increases
same,expression of osteogenic markers after inducing treatment,3T3-L1 adipocytes [3],increased expression
same,expression of chondrogenic markers after inducing treatment,3T3-L1 adipocytes [4],increased expression
same,apoptosis in 3T3-L1 adipocytes,3T3-L1 adipocytes [5],did not lead to significant apoptosis
O=C(/C=C/c1ccc(/C=C/C(=O)Nc2ccc(C3=NCCN3)cc2)cc1)Nc1ccc(C2=NCCN2)cc1 [GW4869],EVs level of NDUFA9 induced by hypertonic treatments,"[6]; 10 μM GW4869, vs DMSO",substantially inhibited
CC(=O)C(=O)O [pyruvic acid],MTG staining of mitochondria in adipocytes,[7],effectively restored
same,levels of mitochondrial proteins VDAC and NDUFA9 in the EVs,[6]; pyruvic acid 1 mM in hypertonic culture,reduced
same,induction of TNF-α expression by hypertonic EVs,[8]; EVs from hypertonic culture with pyruvic acid,prevented
same,induction of TNF-α and IL-6 expression in hypertonic culture,"[8]; pyruvic acid added to the hypertonic culture, 2 hours",abolished
